Data as given in patent publication US12077503B2, “Substituted cyclic amides and their use as herbicides” (FMC CORPORATION, priority 2015, dated 2024).
Like-named read-outs stand apart in the source and are kept apart here.

Tests used:
Assay type in all cases: in vivo
[1] = test system: pigweed (Amaranthus retroflexus); assay: Test A preemergence; conditions: Amaranthus retroflexus, pre-emergence, 240 h, preemergence, 0 to 100 scale where 0 is no effect and 100 is complete control, read-out: Pigweed plant response rating; for pest or weed control at 125 g/ha: 125 g ai/ha, approx. 10 d; for pest or weed control at 500 g/ha: 500 g ai/ha
rice (Oryra sativa) = assay: Test B flooded paddy test; conditions: Oryza sativa, 250 g ai/ha, Flood; 0 to 100 scale where 0 is no effect and 100 is complete control; read-out: Rice plant response rating
Method in brief: (§1)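 Visual ratings (0 none to 100 complete control) are relative to untreated plants, taken 13–15 d after treatment in a greenhouse. Test material went straight into floodwater standing 3 cm above the soil, kept constant, on plants at the 2-leaf stage.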

[2] = test system: ducksalad (Heteranthera limosa); assay: Test B flooded paddy test; conditions: Heteranthera limosa, 250 g ai/ha, Flood; 0 to 100 scale where 0 is no effect and 100 is complete control; read-out: Ducksalad plant response rating
Method in brief: as §1

[3] = test system: barnyardgrass (Echinochloa crus-galli); assay: Test B flooded paddy test; conditions: Echinochloa crus-galli, 250 g ai/ha, Flood; 0 to 100 scale where 0 is no effect and 100 is complete control; read-out: Barnyardgrass plant response rating
Method in brief: as §1

[4] = test system: sedge, umbrella (small-flower umbrella sedge, Cyperus difformis); assay: Test B flooded paddy test; conditions: Cyperus difformis, 250 g ai/ha, Flood; 0 to 100 scale where 0 is no effect and 100 is complete control; read-out: Sedge, Umbrella plant response rating
Method in brief: as §1

corn (Zea mays) = assay: Test A postemergence; conditions: Zea mays, post-emergence, 240 h, postemergence; for plant injury at 125 g/ha: 125 g ai/ha; for plant injury at 500 g/ha: 500 g ai/ha, 0 to 100 scale, 0 is no effect, 100 is complete control
Method in brief: (§2)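 Visual injury, scored on a 0–100 scale relative to untreated controls, was recorded about 10 d after application. Treatments were a preemergence soil spray over planted seeds or a postemergence spray on plants at the one- to two-leaf stage, 2 to 10 cm tall, all in loam soil–sand blend in the greenhouse.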

[5] = test system: pigweed (Amaranthus retroflexus); assay: Test A postemergence; conditions: Amaranthus retroflexus, post-emergence, 240 h, postemergence; for pest or weed control at 125 g/ha: 125 g ai/ha; for pest or weed control at 500 g/ha: 500 g ai/ha, 0 to 100 scale, 0 is no effect, 100 is complete control
Method in brief: as §2

[6] = test system: wheat (Triticum aestivum); assay: Test A postemergence; conditions: Triticum aestivum, post-emergence, 240 h, postemergence; for plant injury at 125 g/ha: 125 g ai/ha; for plant injury at 500 g/ha: 500 g ai/ha, 0 to 100 scale, 0 is no effect, 100 is complete control
Method in brief: as §2

[7] = test system: Galium (catchweed bedstraw, Galium aparine); assay: Test A postemergence; conditions: Galium, post-emergence, 240 h, postemergence; for pest or weed control at 125 g/ha: 125 g ai/ha; for pest or weed control at 500 g/ha: 500 g ai/ha, 0 to 100 scale, 0 is no effect, 100 is complete control
Method in brief: as §2

[8] = test system: blackgrass (Alopecurus myosuroides); assay: Test A postemergence; conditions: Alopecurus myosuroides, post-emergence, 240 h, postemergence; for pest or weed control at 125 g/ha: 125 g ai/ha; for pest or weed control at 500 g/ha: 500 g ai/ha, 0 to 100 scale, 0 is no effect, 100 is complete control
Method in brief: as §2

Kochia (Kochia scoparia) = assay: Test A postemergence; conditions: Bassia scoparia, post-emergence, 240 h, postemergence; for pest or weed control at 125 g/ha: 125 g ai/ha; for pest or weed control at 500 g/ha: 500 g ai/ha, 0 to 100 scale, 0 is no effect, 100 is complete control
Method in brief: as §2

[9] = test system: barnyardgrass (Echinochloa crus-galli); assay: Test A postemergence; conditions: Echinochloa crus-galli, post-emergence, 240 h, postemergence; for pest or weed control at 125 g/ha: 125 g ai/ha; for pest or weed control at 500 g/ha: 500 g ai/ha, 0 to 100 scale, 0 is no effect, 100 is complete control
Method in brief: as §2

[10] = test system: giant foxtail (Setaria faberii); assay: Test A postemergence; conditions: Setaria faberi, post-emergence, 240 h, postemergence; for pest or weed control at 125 g/ha: 125 g ai/ha; for pest or weed control at 500 g/ha: 500 g ai/ha, 0 to 100 scale, 0 is no effect, 100 is complete control
Method in brief: as §2

[11] = test system: ryegrass, Italian (Italian ryegrass, Lolium multiflorum); assay: Test A postemergence; conditions: Lolium multiflorum, post-emergence, 240 h, postemergence; for pest or weed control at 125 g/ha: 125 g ai/ha; for pest or weed control at 500 g/ha: 500 g ai/ha, 0 to 100 scale, 0 is no effect, 100 is complete control
Method in brief: as §2

[12] = test system: ragweed (common ragweed, Ambrosia elatior); assay: Test A postemergence; conditions: Ambrosia artemisiifolia, post-emergence, 240 h, postemergence; for pest or weed control at 125 g/ha: 125 g ai/ha; for pest or weed control at 500 g/ha: 500 g ai/ha, 0 to 100 scale, 0 is no effect, 100 is complete control
Method in brief: as §2

[13] = read-out: Corn plant response rating
[14] = read-out: Pigweed plant response rating
[15] = read-out: Wheat plant response rating
[16] = read-out: Galium plant response rating
[17] = read-out: Blackgrass plant response rating
[18] = read-out: Kochia plant response rating
[19] = read-out: Barnyardgrass plant response rating
[20] = read-out: Foxtail, Giant plant response rating
[21] = read-out: Ryegrass, Italian plant response rating
[22] = read-out: Ragweed plant response rating

Compound	pest or weed control at 125 g/ha [1] [%]	pest or weed control at 500 g/ha [1] [%]	pest or weed control at 250 g/ha (rice (Oryra sativa)) [%]	pest or weed control at 250 g/ha [2] [%]	pest or weed control at 250 g/ha [3] [%]	pest or weed control at 250 g/ha [4] [%]	plant injury at 500 g/ha (corn (Zea mays); [13]) [%]	pest or weed control at 500 g/ha [5, 14] [%]	plant injury at 500 g/ha [6, 15] [%]	pest or weed control at 500 g/ha [7, 16] [%]	pest or weed control at 500 g/ha [8, 17] [%]	pest or weed control at 500 g/ha (Kochia (Kochia scoparia); [18]) [%]	pest or weed control at 500 g/ha [9, 19] [%]	pest or weed control at 500 g/ha [10, 20] [%]	pest or weed control at 500 g/ha [11, 21] [%]	pest or weed control at 500 g/ha [12, 22] [%]	other results
CN1CC[C@H](c2cccc(C(F)(F)F)c2)[C@@H](C(=O)Nc2cccc(F)c2Cl)C1=O [Compound 1158]	0	0	0	80	60	0	60	0	50	30	40	0	90	80	50	0	plant injury at 125 g/ha (corn (Zea mays); visual injury vs untreated controls after approx. 10 d, 0 = no effect, 100 = complete control, read-out: Corn plant response rating (0 to 100 scale)): 20%; pest or weed control at 125 g/ha ([5]; visual injury vs untreated controls after approx. 10 d, 0 = no effect, 100 = complete control, read-out: Pigweed plant response rating (0 to 100 scale)): 0%; plant injury at 125 g/ha ([6]; visual injury vs untreated controls after approx. 10 d, 0 = no effect, 100 = complete control, read-out: Wheat plant response rating (0 to 100 scale)): 30%; pest or weed control at 125 g/ha ([7]; visual injury vs untreated controls after approx. 10 d, 0 = no effect, 100 = complete control, read-out: Galium plant response rating (0 to 100 scale)): 20%; pest or weed control at 125 g/ha ([8]; visual injury vs untreated controls after approx. 10 d, 0 = no effect, 100 = complete control, read-out: Blackgrass plant response rating (0 to 100 scale)): 20%; pest or weed control at 125 g/ha (Kochia (Kochia scoparia); visual injury vs untreated controls after approx. 10 d, 0 = no effect, 100 = complete control, read-out: Kochia plant response rating (0 to 100 scale)): 0%; pest or weed control at 125 g/ha ([9]; visual injury vs untreated controls after approx. 10 d, 0 = no effect, 100 = complete control, read-out: Barnyardgrass plant response rating (0 to 100 scale)): 90%; pest or weed control at 125 g/ha ([10]; visual injury vs untreated controls after approx. 10 d, 0 = no effect, 100 = complete control, read-out: Foxtail, Giant plant response rating (0 to 100 scale)): 80%; pest or weed control at 125 g/ha ([11]; visual injury vs untreated controls after approx. 10 d, 0 = no effect, 100 = complete control, read-out: Ryegrass, Italian plant response rating (0 to 100 scale)): 30%; pest or weed control at 125 g/ha ([12]; visual injury vs untreated controls after approx. 10 d, 0 = no effect, 100 = complete control, read-out: Ragweed plant response rating (0 to 100 scale)): 0%
CN1C[C@H](c2cc(C(F)F)cs2)[C@@H](C(=O)Nc2cccc(F)c2F)C1=O [Compound 1121]	0	50	10	100	70	0	90	40	60	60	60	70	90	90	70	40	plant injury at 125 g/ha (corn (Zea mays); visual injury on 0 to 100 scale (0 no effect, 100 complete control), approx. 10 d, read-out: Corn plant response rating): 50%; pest or weed control at 125 g/ha ([5]; visual injury on 0 to 100 scale (0 no effect, 100 complete control), approx. 10 d, read-out: Pigweed plant response rating): 20%; plant injury at 125 g/ha ([6]; visual injury on 0 to 100 scale (0 no effect, 100 complete control), approx. 10 d, read-out: Wheat plant response rating): 30%; pest or weed control at 125 g/ha ([7]; visual injury on 0 to 100 scale (0 no effect, 100 complete control), approx. 10 d, read-out: Galium plant response rating): 50%; pest or weed control at 125 g/ha ([8]; visual injury on 0 to 100 scale (0 no effect, 100 complete control), approx. 10 d, read-out: Blackgrass plant response rating): 40%; pest or weed control at 125 g/ha (Kochia (Kochia scoparia); visual injury on 0 to 100 scale (0 no effect, 100 complete control), approx. 10 d, read-out: Kochia plant response rating): 50%; pest or weed control at 125 g/ha ([9]; visual injury on 0 to 100 scale (0 no effect, 100 complete control), approx. 10 d, read-out: Barnyardgrass plant response rating): 90%; pest or weed control at 125 g/ha ([10]; visual injury on 0 to 100 scale (0 no effect, 100 complete control), approx. 10 d, read-out: Foxtail, Giant plant response rating): 90%; pest or weed control at 125 g/ha ([11]; visual injury on 0 to 100 scale (0 no effect, 100 complete control), approx. 10 d, read-out: Ryegrass, Italian plant response rating): 40%; pest or weed control at 125 g/ha ([12]; visual injury on 0 to 100 scale (0 no effect, 100 complete control), approx. 10 d, read-out: Ragweed plant response rating): 20%
